Tests used:
[1] = test system: Gli1 transcriptional activity; test: Gli responsive luciferase reporter in NIH3T3-E1 cells over expressing Gli1; assay type: cell-based, mouse; conditions: 10 μM, 72 hrs
Description: NIH3T3-E1 cells cultured in 24 well-plates at 90% confluence were transiently transfected with 0.1 μg of Smad response-element reporter (SBE-Luciferase) plasmid (Qiagen), or with 0.1 μg of Gli response-element reporter (pGL3b-8xGli-Luciferase) plasmid, and 10 ng of pSV40-Renilla-Luciferase plasmid (Promega, Madison, WI, USA) with or without co-transfection with 10ng of Gli1 overexpression vector, pSRα-Gli1 using a Lipofectamine LTX Plus transfection reagent, as previously described. Sufu-/- cells cultured in 24 well-plates at 90% confluence were transiently transfected with 0.1μg of pGL3b-8xGli-Luciferase plasmid, and 10 ng of pSV40-Renilla-Luciferase plasmid. 6 hrs after transfection, cells were treated with test agents for 72 h. […] Then the firefly and Renilla luciferase activities were measured using a dual luciferase kit (Promega) and a GloMax-96 Microplate Luminometer (Promega) or a plate reader-SpectraMax iD3 (Molecular Devices, San Jose, CA, USA). […]
Figure 5 Oxy210 acts downstream of Smo. […] After 72 h, RNA was extracted and analyzed by Q-RT-PCR for the expression of Hh target genes Gli1 and Hip, normalized to Oaz1 expression. […] Luciferase activity was measured and normalized to the Renilla luciferase activity. […]

[2] = test system: phosphorylation of Smad2 and Smad3 in A549 cells; test: Western blot of TGFβ-induced Smad2/Smad3 phosphorylation; assay type: cell-based, human; conditions: 10 μM pretreatment 3 h, TGFβ 4 ng/mL
Description: A549 cells were pretreated with DMSO, Oxy186 (10 μM) or Oxy210 (10 μM) for 3 h, then treated with TGFβ (4 ng/mL) for the indicated times. After treatment, the cells were harvested in Triton lysis buffer (1% Triton X-100, 25 mM Tris-HCl, pH 7.4, 300 mM NaCl with protease and phosphatase inhibitors), and the supernatant was collected as cell lysates after centrifugation (15,000× g, 25 min at 4 °C). A Bradford assay was used to measure the protein concentration. […] proteins of each sample were loaded into the wells of an 8% SDS-PAGE gel, and the proteins were transferred to a PVDF membrane after SDS-PAGE gel separation. […] Densitometry readings were performed with ImageJ software (Version 1.52a, NIH, Bethesda, MD, USA, see Supplementary Materials).
Figure 11 Inhibition of TGFβ-induced Smad2/3 phosphorylation and transcriptional activity. […] Luciferase activity was measured and normalized to the Renilla luciferase activity. […]

Question: What does the source list for `C[C@]12CC[C@H]3[C@@H](CC=C4C[C@@H](O)CC[C@@]43C)[C@@H]1CC[C@@H]2[C@](C)(O)CCc1cccnc1` [Oxy210, (3S,8S,9S,10R,13S,14S,17S)-17-((R)-2-hydroxy-4-(pyridin-3-yl)butan-2-yl)-10,13-dimethyl-2,3,4,7,8,9,10,11,12,13,14,15,16,17-tetradecahydro-1H-cyclopenta[a]phenanthren-3-ol]?
Answer: transcriptional activity of Gli responsive luciferase reporter trans-activated by exogenous Gli1 [1]: significantly inhibited; TGFβ-induced phosphorylation of Smad2 and Smad3 [2]: robustly inhibited

Source: publication PMC6829886, “Inhibition of Non-Small Cell Lung Cancer Cells by Oxy210, an Oxysterol-Derivative that Antagonizes TGFβ and Hedgehog Signaling” (Cells, 2019)
